Experimental data: US5886165A, “Mixed backbone antisense oligonucleotides containing 2'-5'-ribonucleotide- and 3'-5'-deoxyribonucleotides segments” (Hybridon, Inc., priority 1996, dated 1999)
[25] = 2'-5' internucleotide linkage (phosphodiester)

Columns and labels:
HIV-1 = test: Inhibition of HIV-1 replication in cell culture (MT-4 cells, MTT); assay type: cell-based; details: for IC50: 6 days
Method: Oligonucleotides according to the invention were studied for their ability to inhibit HIV-1. HIV-1 inhibition assay was carried out as described previously. Kandimalla et al., Nucleic Acids Res., supra). Briefly, serial dilutions of antisense oligonucleotides were prepared in 50 μl volumes of complete medium (RAMI-1640, 10% fetal bovine serum, 2 mM L-glutamine, 100 U/ml penicillin, […] streptomycin) in triplicate in 96-well plates. Virus diluted to contain a 90% CP dose of virus in 50 μl was added, followed by 100 μl 4×10^5 /ml MT-4 cells in complete medium. The plates were incubated at 37° C. in 5% CO2 for 6 days. MTT dye was added and quantified at A540 and A690 as described. The percent inhibition was calculated by the formula (experimental--virus control)/(medium control--virus control)×100.

Spleen cells (CD1 mouse) = test: In vitro cell proliferation assay ([3H]thymidine); assay type: cell-based; details: at 10 μg/ml, 48 hrs
Method: Cell proliferation assays were carried out as described earlier (Zhao et al., Biochem. Pharmacol 51, 173-182 (1996)). Spleen cells (4-5 week old male CD1 mouse, 20-22 gm, Charles River, Wilmington, Mass.) suspensions were prepared and plated in 96-well dishes at a density of 10^6 cells/ml in a final volume of 100 μl. The cells were incubated at 37° C. after adding 10 μl of oligonucleotides. After 44 hrs incubation, 1 μCi [3H]thymidine (Amersham, Arlington Heights, Ill.) was added and the cells were pulse-labeled for another 4 hrs. The cells were harvested by an automatic cell harvester and the filters were counted by a scintillation counter. All experiments were carried out in triplicate.

[1] = test system: RNA target strand SEQ ID NO 9 (25 base sequence from the initiation codon region of the HIV-1 gag mRNA); test: Thermal melting study, duplex with RNA target strand; assay type: binding; details: for Tm RNA: duplex with RNA SEQ ID NO 9, 10 mM disodium hydrogen phosphate pH 7.5, 100 mM NaCl, 2.0 μM total strands; for Tm lower than duplex of control phosphorothioate oligonucleotide SEQ ID NO 8, RNA target: vs SEQ ID NO 8, RNA SEQ ID NO 9
Method: (§1) Thermal denaturation studies were carried out by mixing MBOs with the DNA or RNA target strands in equimolar ratios in 10 mM disodium hydrogen phosphate, pH 7.5±0.1, 100 mM sodium chloride buffer, heated to 95° C. for 10 min, and allowed to come to room temperature slowly before being stored at 4° C. overnight. The final total concentration of the oligonucleotide strands was 2.0 μM. Spectrophotometric measurements were performed at 260 nm using 1 cm path length quartz cuvettes at a heating rate of 0.5° C./min on a Perkin-Elmer (Norwalk, Conn.) Lambda 2 Specotrometer attached to a thermal controller and a personal computer. Melting temperatures (Tm) taken as the temperature of half-dissociation and were obtained from first derivative plots. Precision in Tm values estimated from variance in two or three repeated experiments was ±0.5° C.

[2] = test system: citrated normal human donor plasma; test: Clotting assay, activated partial thromboplastin time (aPTT); details: compared to saline control; for 50% Prolongation of Clotting (aPTT): human plasma; for effect in coagulation assay (in words): up to 100 μg/ml dose
Method: The activated partial thromboplastin time (aPTT) was performed with citrated normal human donor plasma in duplicate on an Electra 1000C (Medical Laboratory Automation, Mount Vernon, N.Y.) according to recommended procedures using Actin FSL (Baxter Dade, Miami, Fla.) and 2.5 mM calcium to initiate clot formation, which was measured photometrically. Normal plasma aPTT values ranged from 27 to 39 sec. Data were calculated as 50% of prolongation as compared to the saline control.

[3] = test system: DNA target strand SEQ ID NO 10 (25 base sequence from the initiation codon region of the HIV-1 gag mRNA); test: Thermal melting study, duplex with DNA target strand; assay type: binding; details: for Tm DNA: duplex with DNA SEQ ID NO 10, 10 mM disodium hydrogen phosphate pH 7.5, 100 mM NaCl, 2.0 μM total strands; for Tm lower than duplex of control phosphorothioate oligonucleotide SEQ ID NO 8, DNA target: vs SEQ ID NO 8, DNA SEQ ID NO 10
Method: as §1

[4] = test system: normal human serum complement lysis of sheep red blood cells; test: CH50 hemolytic complement assay; details: for 50% Inhibition of Complement Lysis: compared to saline control
Method: A CH50 assay for complement lysis of sheep red blood cells (Colorado Serum Co., Denver, Col.) sensitized with anti-sheep red cell antibody (hemolysin; Diamedix, Miami, Fla.) as previously described (Mayer, In Experimental Immunochemistry, Kabat and Mayer eds., C. C. Thomas, Springfield, pp. 125-131 (1961)), was modified to test 1-200 dilutions of normal human serum interpreted. Hemoglobin release into cell-free supernates was measured spectrophotometrically at 541 nm. Data were calculated as 50% inhibition of lysis compared to saline control.

[5] = Stability in DMEM cell culture medium containing 10% fetal calf serum; assay type: in vitro ADME; details: DMEM with 10% non-heat-inactivated fetal calf serum, 37° C.
Method: Oligonucleotides were labeled at the 5'-end with ^32 P using γ-^32 P-ATP (Amersham) and T4 polynucleotide kinase (Promega). Sambrook et al, Molecular Cloning, supra. Stability of the oligonucleotides in cell culture medium containing 10% fetal calf serum was tested by incubating a small amount of labeled oligonucleotide together with 100 ng of cold oligonucleotide in DMEM cell culture medium (Gibco/BRL, Grand Island, N.Y.) containing 10% non-heat-inactivated fetal calf serum (Gibco/BRL) at 37° C. in a final volume of 40 μl, and aliquots were removed at different times.

S1 nuclease = molecular target: T1, S1 nuclease (Aspergillus oryzae, UniProt P24021); test: S1 nuclease assay; assay type: in vitro ADME; details: 1.4 U, 37° C., pH 5.0
T1 construct: purchased Gibco/BRL
T1 sequence (P24021 21-287): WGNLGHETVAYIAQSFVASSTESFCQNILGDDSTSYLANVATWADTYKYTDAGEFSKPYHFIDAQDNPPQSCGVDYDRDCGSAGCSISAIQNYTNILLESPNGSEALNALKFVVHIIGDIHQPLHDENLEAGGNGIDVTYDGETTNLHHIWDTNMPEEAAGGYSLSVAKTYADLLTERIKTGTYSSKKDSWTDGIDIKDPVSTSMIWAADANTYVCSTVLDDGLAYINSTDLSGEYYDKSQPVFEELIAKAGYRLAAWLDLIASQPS
Method: (§2) For snake venom phosphodiesterase assay, labeled oligonucleotide with cold oligonucleotide in a buffer (10 mM Tris, pH 8.0, 100 mM sodium chloride, and 10 mM magnesium chloride) was incubated with 0.01 U of snake venom phosphodiesterase (Boehringer-Mannheim, Indianapolis, Ind.) at 21° C. (final volume 40 μl). Aliquots were removed at different time intervals for electrophoretic gel analysis. For S1 nuclease assay, reactions were carried out as above but in […] sodium acetate, pH 5.0, 10 mM zinc acetate buffer and with 1.4 U of S1 nuclease (Gibco/BRL) incubated at 37° C. in a final volume of 50 μl. Aliquots were removed at different time intervals for electrophoretic gel analysis. Nuclease reactions were stopped by adding 5 μl of formamide gel loading buffer to each sample and heating at 90° C. for 5 min. All the samples were then run by 20% PAGE (7M urea) and visualized by autoradiography.

[6] = test system: snake venom phosphodiesterase; test: Snake venom phosphodiesterase assay; assay type: in vitro ADME; details: 0.01 U, 21° C.; compared with SEQ ID NO 7
Method: as §2

Substance	IC50 (HIV-1)	Stimulation Index (Lymphocyte Proliferation) (Spleen cells (CD1 mouse))	Tm RNA [1]	50% Prolongation of Clotting (aPTT) [2]	Tm DNA [3]	50% Inhibition of Complement Lysis [4]	other results
SEQ ID NO 3: Phosphorothioate analog of SEQ ID NO 1 (antisense CUCTCGCACCCATCTCTCTCCUUCT; phosphorothioate, chemistry not fully specified)	0.0298 µM	4.9	61.1 °C	58.0 µg/mL	51.9 °C	95.2 µg/mL	Stimulation Index (Lymphocyte Proliferation) (Spleen cells (CD1 mouse); listed as 3): 4.93 ± 0.15; Tm lower than duplex of control phosphorothioate oligonucleotide SEQ ID NO 8, RNA target [1]: ~2.4 °C; Tm lower than duplex of control phosphorothioate oligonucleotide SEQ ID NO 8, DNA target [3]: about 4.70 °C
SEQ ID NO 2: MBO with three 2'-5'-linkages at each end; 2'-5'-phosphodiester and 3'-5'-phosphorothioate linkages (antisense CUCTCGCACCCATCTCTCTCCUUCT; linkages [25]3 s18 [25]3 (s phosphorothioate, o phosphodiester), sugars by position and methylation of C not given here)	0.0999 µM	2.82 ± 0.37	63.3 °C	51.1 µg/mL	52.5 °C	59.1 µg/mL	concentration required to achieve IC50 relative to control SEQ ID NO 8 (HIV-1; HIV-1 replication): four fold higher concentration
SEQ ID NO 8: Control phosphorothioate oligonucleotide containing all 3'-5' linkages (CTCTCGCACCCATCTCTCTCCTTCT; all phosphorothioate, sugars by position and methylation of C not given here) [reference compound]	0.0249 µM	6.16	63.5 °C	about 23 μg/ml	56.6 °C	34.2 µg/mL	Stimulation Index (Lymphocyte Proliferation) (Spleen cells (CD1 mouse); listed as 8): 6.16 ± 0.12; 50% Prolongation of Clotting (aPTT) ([2]; listed as 8): 23.2 µg/mL; effect on complement hemolytic activity (in words) [4]: inhibited serum complement hemolytic activity
SEQ ID NO 6: Phosphorothioate analog of SEQ ID NO 4, with nine 2'-5' linkages (antisense CUCTCGCACCCAUCTCTCTCCUUCT; all linkages phosphorothioate, nine 2'-5' linkages, further chemistry not given here)		0.23	56.4 °C	98.3 µg/mL	39.4 °C	> 500.0 µg/mL	Stimulation Index (Lymphocyte Proliferation) (Spleen cells (CD1 mouse); listed as 6): 0.23 ± 0.04; Tm lower than duplex of control phosphorothioate oligonucleotide SEQ ID NO 8, RNA target [1]: 7.1 °C; Tm lower than duplex of control phosphorothioate oligonucleotide SEQ ID NO 8, DNA target [3]: 17.2 °C
SEQ ID NO 7: Control phosphodiester oligonucleotide containing all 3'-5' linkages (CTCTCGCACCCATCTCTCTCCTTCT; all phosphodiester, sugars by position and methylation of C not given here) [reference compound]		1.10 ± 0.13	70.5 °C	> 100.0 µg/mL	63.5 °C	> 500.0 µg/mL	half-life in serum [5]: < 30 min; digestion by S1 nuclease (in words) (S1 nuclease): quickly digested; effect in coagulation assay (in words) [2]: negligible effect
SEQ ID NO 4: Phosphodiester MBO with three 2'-5' linkages at each end and an additional three in the middle (antisense CUCTCGCACCCAUCTCTCTCCUUCT; phosphodiester, three 2'-5' linkages at each end and three in middle, further chemistry not given here)			64.5 °C	> 100.0 µg/mL	52.8 °C		stability in serum (in words) [5]: intact up to four hours; stability against snake venom phosphodiesterase (in words) [6]: slightly higher stability; ΔTm with the RNA strand ([1]; destabilizing effect, RNA strand): -6.0 °C; digestion by S1 nuclease (in words) (S1 nuclease): quickly digested; effect in coagulation assay (in words) [2]: negligible effect; ΔTm with the DNA strand ([3]; destabilizing effect, DNA strand): -10.7 °C
SEQ ID NO 5: MBO with nine 2'-5'-linkages; 2'-5'-phosphodiester and 3'-5'-phosphorothioate linkages (antisense CUCTCGCACCCAUCTCTCTCCUUCT; nine 2'-5' phosphodiester linkages, other linkages 3'-5' phosphorothioate, further chemistry not given here)	> 0.8 µM	1.09 ± 0.05	61.2 °C	115.0 µg/mL	43.2 °C		IC50 (HIV-1; listed as 5): 0.812 µM
